Laboratory results as given in patent publication US10195196B2, “1,4-disubstituted pyridazine analogs there of and methods for treating SMN-deficiency-related conditions” (NOVARTIS AG, priority 2012, dated 2019).

Tested on: SMN protein
Assay: cellular SMN ELISA (SMN protein elevation)
Format: cell-based
Conditions: ELISA condition 2: compound concentration 100 pM-10 uM, myoblast cell line from SMNdelta7 mouse model, 24 hours treatment; for SMN activity Fold: fold activation over DMSO control
Method in brief: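 Readout is fold SMN elevation versus DMSO plus EC50, measured by anti-SMN capture ELISA with 450 nm absorbance. Lysates came from a myoblast line of the SMNdelta7 mouse model after 24 h compound exposure, with dose ranges of 20 nM–10 μM (condition 1) or 100 pM–10 μM (condition 2).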

Row | Compound | EC50 | SMN activity Fold
1 | CN(c1ccc(-c2ccc(C3=CCOCC3)cc2O)nn1)C1CC(C)(C)NC(C)(C)C1 [Example 41-17, 5-(3,6-dihydro-2H-pyran-4-yl)-2-(6-(methyl(2,2,6,6-tetramethylpiperidin-4-yl)amino)pyridazin-3-yl)phenol] | 170 nM | 2.88 Fold
2 | CN(c1ccc(-c2ccc(-c3ccn4cncc4c3)cc2O)nn1)C1CC(C)(C)NC(C)(C)C1 [Example 41-18, 5-(imidazo[1,5-a]pyridin-7-yl)-2-(6-(methyl(2,2,6,6-tetramethylpiperidin-4-yl)amino)pyridazin-3-yl)phenol] | 17 nM | 2.44 Fold
3 | CN(c1ccc(-c2ccc(-c3ccn4ccnc4c3)cc2O)nn1)C1CC(C)(C)NC(C)(C)C1 [Example 41-19, 5-(imidazo[1,2-a]pyridin-7-yl)-2-(6-(methyl(2,2,6,6-tetramethylpiperidin-4-yl)amino)pyridazin-3-yl)phenol] | 17 nM | 2.62 Fold
4 | Cc1cc(-c2ccc(-c3ccc(N(C)C4CC(C)(C)NC(C)(C)C4)nn3)c(O)c2)ccn1 [Example 41-20, 2-(6-(methyl(2,2,6,6-tetramethylpiperidin-4-yl)amino)pyridazin-3-yl)-5-(2-methylpyridin-4-yl)phenol] | 32 nM | 2.63 Fold
5 | CN(c1ccc(-c2ccc(-c3ncc[nH]3)cc2O)nn1)C1CC(C)(C)NC(C)(C)C1 [Example 42-1, 5-(1H-imidazol-2-yl)-2-(6-(methyl(2,2,6,6-tetramethylpiperidin-4-yl)amino)pyridazin-3-yl)phenol] | 117 nM | 2.28 Fold
6 | CN(c1ccc(-c2ccc(-c3c[nH]cn3)cc2O)nn1)C1CC(C)(C)NC(C)(C)C1 [Example 42-2, 5-(1H-imidazol-4-yl)-2-(6-(methyl(2,2,6,6-tetramethylpiperidin-4-yl)amino)pyridazin-3-yl)phenol] | 26 nM | 2.06 Fold
7 | CN(c1ccc(-c2ccc(-c3cnc4cnccn34)cc2O)nn1)C1CC(C)(C)NC(C)(C)C1 [Example 42-3, 5-(imidazo[1,2-a]pyrazin-3-yl)-2-(6-(methyl(2,2,6,6-tetramethylpiperidin-4-yl)amino)pyridazin-3-yl)phenol] | 99 nM | 2.92 Fold
8 | CN(c1ccc(-c2ccc(-c3cnc4n3CCNC4)cc2O)nn1)C1CC(C)(C)NC(C)(C)C1 [Example 42-4, 2-(6-(methyl(2,2,6,6-tetramethylpiperidin-4-yl)amino)pyridazin-3-yl)-5-(5,6,7,8-tetrahydroimidazo[1,2-a]pyrazin-3-yl)phenol] | 853 nM | 2.41 Fold
9 | Cc1c[nH]c(-c2ccc(-c3ccc(N(C)C4CC(C)(C)NC(C)(C)C4)nn3)c(O)c2)n1 [Example 42-5, 2-(6-(methyl(2,2,6,6-tetramethylpiperidin-4-yl)amino)pyridazin-3-yl)-5-(4-methyl-1H-imidazol-2-yl)phenol] | 202 nM | 3.22 Fold
10 | CN(c1ccc(-c2ccc(-c3cn(C)cn3)cc2O)nn1)C1CC(C)(C)NC(C)(C)C1 [Example 42-6, 2-(6-(methyl(2,2,6,6-tetramethylpiperidin-4-yl)amino)pyridazin-3-yl)-5-(1-methyl-1H-imidazol-4-yl)phenol] | 66 nM | 2.49 Fold
11 | CN(c1ccc(-c2ccc(-c3cncn3C)cc2O)nn1)C1CC(C)(C)NC(C)(C)C1 [Example 42-7, 2-(6-(methyl(2,2,6,6-tetramethylpiperidin-4-yl)amino)pyridazin-3-yl)-5-(1-methyl-1H-imidazol-5-yl)phenol] | 55 nM | 2.51 Fold
12 | CN(c1ccc(-c2ccc(-c3nc([N+](=O)[O-])c[nH]3)cc2O)nn1)C1CC(C)(C)NC(C)(C)C1 [Example 42-8, 2-(6-(methyl(2,2,6,6-tetramethylpiperidin-4-yl)amino)pyridazin-3-yl)-5-(4-nitro-1H-imidazol-2-yl)phenol] | 756 nM | 2.82 Fold
13 | Cc1nc(-c2ccc(-c3ccc(N(C)C4CC(C)(C)NC(C)(C)C4)nn3)c(O)c2)c[nH]1 [Example 42-9, 2-(6-(methyl(2,2,6,6-tetramethylpiperidin-4-yl)amino)pyridazin-3-yl)-5-(2-methyl-1H-imidazol-4-yl)phenol] | 15 nM | 2.85 Fold
14 | Cc1nc(-c2ccc(-c3ccc(N(C)C4CC(C)(C)NC(C)(C)C4)nn3)c(O)c2)cn1C [Example 42-10, 5-(1,2-dimethyl-1H-imidazol-4-yl)-2-(6-(methyl(2,2,6,6-tetramethylpiperidin-4-yl)amino)pyridazin-3-yl)phenol] | 57 nM | 3.10 Fold
15 | CN(c1ccc(-c2ccc(-n3cc(C(N)=O)cn3)cc2O)nn1)C1CC(C)(C)NC(C)(C)C1 [Example 42-11, 1-(3-hydroxy-4-(6-(methyl(2,2,6,6-tetramethylpiperidin-4-yl)amino)pyridazin-3-yl)phenyl)-1H-pyrazole-4-carboxamide] | 239 nM | 3.37 Fold
16 | OCCN1C[C@@H]2CN(c3ccc(-c4ccc(-c5cn[nH]c5)cc4O)nn3)C[C@@H]2C1 [Example 43-1, 2-(6-((3aR,6aS)-5-(2-hydroxyethyl)hexahydropyrrolo[3,4-c]pyrrol-2(1H)-yl)pyridazin-3-yl)-5-(1H-pyrazol-4-yl)phenol] | 40 nM | 3.04 Fold
17 | CN1C[C@@H]2CN(c3ccc(-c4ccc(-c5cn[nH]c5)cc4O)nn3)C[C@@H]2C1 [Example 43-3, 2-(6-((3aR,6aS)-5-methylhexahydropyrrolo[3,4-c]pyrrol-2(1H)-yl)pyridazin-3-yl)-5-(1H-pyrazol-4-yl)phenol] | 19 nM | 2.39 Fold
18 | CN1C[C@@H]2CN(c3ccc(-c4ccc(-c5ccn(C)c(=O)c5)cc4O)nn3)C[C@@H]2C1 [Example 43-4, 4-(3-hydroxy-4-(6-(5-methylhexahydropyrrolo[3,4-c]pyrrol-2(1H)-yl)pyridazin-3-yl)phenyl)-1-methylpyridin-2(1H)-one] | 41 nM | 2.94 Fold
19 | CN1CC[C@@H]2CN(c3ccc(-c4ccc(-c5ccn(C)c(=O)c5)cc4O)nn3)C[C@@H]21 [Example 43-5, 4-(3-hydroxy-4-(6-((3aR,6aR)-1-methylhexahydropyrrolo[3,4-b]pyrrol-5(1H)-yl)pyridazin-3-yl)phenyl)-1-methylpyridin-2(1H)-one] | 159 nM | 2.29 Fold
20 | Cn1ccc(-c2ccc(-c3ccc(N4CCC5(CCCNC5)C4)nn3)c(O)c2)cc1=O (stereo not shown) [Example 43-7, 4-(4-(6-(2,7-diazaspiro[4.5]decan-2-yl)pyridazin-3-yl)-3-hydroxyphenyl)-1-methylpyridin-2(1H)-one] | 156 nM | 2.42 Fold
